Earlier results on three compounds are cited in paper PMC8622523, “New Diterpenoids from Mesona procumbens with Antiproliferative Activities Modulate Cell Cycle Arrest and Apoptosis in Human Leukemia Cancer Cells” (Pharmaceuticals, 2021).

For one data set, the system named is hepatoma. More on the design: method as in PMID 30835539. As to conditions: read-out: anti-hepatoma IC50; cited from earlier work.
The subject of another data set is HL-60 cells. Further details: method as in PMID 20851175. Particulars: cited from earlier work.
The test system of another data set is KYSE-450 cells. Particulars: cited from earlier work.
For the next data set, the system named is KYSE-150 cells. As to conditions: cited from earlier work.

In general, IC50 refers to the midpoint of a concentration-inhibition curve. Consider “4α-hydroxy-17,19-dinor-ent-kaurane-16-one”, for which, in the data set on hepatoma, the IC50 was over 100 µM.
With `C=C1C(=O)[C@@]23[C@H](O)C[C@@H]4C(C)(C)C(=O)CC[C@@]4(C)[C@@H]2CC[C@@H]1[C@H]3O` [glaucocalyxin A], the apoptosis induction result in the data set with HL-60 cells is recorded as “induced apoptosis in HL-60 cells”.
Regarding `C=C1C(=O)[C@@]23[C@@H]4O[C@H]5O[C@@]2(O)[C@@H](O)[C@@H]2C(C)(C)CCC[C@]52[C@@H]3CC[C@@H]14` [xerophilusin B], the “apoptosis and cell cycle arrest” value in the data set on KYSE-450 cells was “induce apoptosis and G2/M phase cell cycle arrest”; in the data set with KYSE-150 cells it was “induce apoptosis and G2/M phase cell cycle arrest”.
